Measurements from patent US20220227815A1, “COMPOSITIONS AND METHODS USEFUL IN TREATING BRAIN DISEASES” (University of Kansas, priority 2019, published 2022).
“Also recorded” adds a separate entry of the source. Positions of bridges follow the written chain, without caps; N, C: chain ends. Non-standard residues stand in square brackets, D forms with d. Residues, ends and D or L forms follow the SMILES beside them. ξ: configuration not given here. Thr(3ξ) = CC(O)[C@H](N)C(=O)O

Assays:
[1] = system: blood-brain barrier (BBB); experiment: In vivo brain delivery of IRdye800CW-IgG mAb, NIRF quantification in brain homogenates; settings: C57BL/6 mice
Method: The activity of each peptide in enhancing blood-brain barrier (BBB) penetration was evaluated by delivering IRdye800CW donkey anti-goat IgG mAb in C57BL/6 mice; the amounts of mAb in the brain were determined using NIRF imaging. Each group contained 3 mice per group (n=3) with a mixture of male and female mice, selected randomly for each arm of the study. The injection solution was prepared by adding 600 μL PBS into 0.5 mg lyophilized IgG mAb; then, approximately 1.5 mg lyophilized peptide was added into the mixture yielding the injectable formulation. A 100 μL solution of a mixture containing IgG mAb (21.6 nmol/kg) along with 13 μmol/kg peptide of the present technology was administered via tail vein. As a control, 100 μL of IgG mAb alone was administered via i.v. route. After the delivered molecules had been circulating for 15 min, the mice were sacrificed; then, a mixture of PBS with 0.5% Tween20 was administered for cardiac perfusion to remove the blood and […] molecules into the brain microvessels. The brain and other organs such as lung, heart, spleen, liver, and kidney were harvested and rinsed with PBS. The isolated organs were scanned with Odyssey® CLx for mAb quantification.
The brain deposition of IgG mAb was also quantified by NIRF imaging in brain homogenates. The isolated brains were mechanically homogenized in 2.0 mL of PBS. To make the standard solutions, IRDye800CW IgG mAb stock solution (70 μg/mL) was prepared; it was then diluted with various amounts of PBS to make six different mAb concentrations. To generate a calibration curve, the brain homogenate (200 μL) was aliquoted out to a 96-well plate. 10 μL of each concentration of IgG mAb was added to three different wells of blank brain homogenates. The standard spiked homogenates were at a range of 10-200 ng/mL IgG mAb in brain homogenate. The wells were scanned using the Odyssey® CLx scanner, and the signal intensities vs. concentrations of mAb per gram of brain were used to generate a calibration curve.
(§1) The BBB modulatory activities of ADTC5 and HAV6 to enhance brain delivery of IRdyeR800CW-labeled lysozyme, albumin, IgG mAb, and fibronectin were compared in C57BL/6 mice. The proteins with or without 13 μmol/kg HAV6 or ADTC5 were administered via tail vein injection. For lysozyme, the delivered doses were 21.6 and 54 nmol/kg. For albumin, IgG mAb, and fibronectin, the dose used was 21.6 nmol/kg. Fifteen minutes after IgG mAb administration with or without a peptide of the present technology, the animals were sacrificed and PBS with 0.5% Tween-20 was administered for cardiac perfusion to remove the remaining protein in the BBB microvessels. The brain and other organs such as lung, heart, spleen, liver and kidney were harvested and rinsed with PBS. Protein depositions in the brain and other organs were quantified by NIRF imaging using an Odyssey CLx NIRF scanner.
(§2) A second quantification method was done using brain homogenates. In this case, the brains were homogenized in 2.0 mL PBS by mechanical disruption and 200 μL of homogenized brain (n=8) was aliquoted to a 96-well plate followed by quantification using the Odyssey CLx scanner. The signal intensity was compared to calibration curve and normalized to brain weight and homogenate volume.

[2] = system: blood-brain barrier (BBB); experiment: Brain delivery of IRdye800CW-IgG mAb in SJL/elite mice, whole brain NIRF imaging; assay type: in vivo; settings: IgG mAb 26.8 nmol/kg i.v. alone (n=4) or with ADTC5 13 μmol/kg (n=5), 15 min
Method: Brain Delivery IRdye800CW-labeled IgG mAb using ADTC5 in SJL/elite Mice. For initial evaluation of whether ADTC5 can deliver proteins into the brain, IRdye800CW donkey-anti-goat IgG mAb was administered via i.v. with and without ADTC5 peptide in 5-8-week-old SJL/elite mice. Two groups of healthy SJL/elite mice were injected with (a) a mixture of IgG mAb (26.8 nmol/kg) and ADTC5 peptide (13 μmol/kg) (n=5) and (b) IgG mAb alone (26.8 nmol/kg) (n=4). After 15 min in the systemic circulation, the mice were euthanized using CO2 inhalation followed by brain perfusion using PBS to remove the remaining protein in the BBB microvasculature. Next, the brains were isolated followed by NIRF imaging using Licor Odyssey CLx (Licor, Lincoln, Nebr.). Eight optical sections were taken at 0.5 mm increments beginning from the bottom surface of the brain to a depth of 4 mm. The optical sections were summed to yield a fluorescence intensity value per each brain.

[3] = system: blood-brain barrier (BBB); experiment: In vivo brain delivery of IRdye800CW-fibronectin (220 kDa); parameters: species or system C57BL/6 mice
Method: as §1, §2
(§3) Brain Perfusion. After euthanasia using CO2 chamber, mice were immediately subjected to cervical dislocation followed by removal of IRdye800CW-labeled protein from the brain capillaries using perfusion solution. In this case, a solution containing PBS with 0.2% Tween-20 was transcardially perfused to remove the remaining protein molecules in the brain endothelial microvessels. After perfusion, the brain was removed from the skull and subjected to capillary depletion.

[4] = system: blood-brain barrier (BBB); experiment: In vivo brain delivery of IRdye800CW-lysozyme (15 kDa); parameters: species or system C57BL/6 mice
Method: Preparation of Stock and Standard Curves. The stock solution for IRDye800CW protein (i.e., lysozyme, 70 μg/mL) was prepared and stored at −80° C. The stock solution was later diluted with PBS to make the required standard solutions. To produce a standard calibration curve, 200 μL of blank brain homogenates was spiked with 10 μL standard solutions of various concentrations to yield a linear range from 0.5 to 50 ng/mL. The same method was employed for the sample's quality control (QC).
as §1, §2, §3

[5] = system: blood-brain barrier (BBB); experiment: In vivo brain delivery of IRdye800CW-albumin (65 kDa); settings: IRdye800CW-albumin 21.6 nmol/kg i.v. alone or with 13 μmol/kg peptide; C57BL/6 mice
Method: as §1, §2, §3

[6] = system: SJL/elite EAE mice; experiment: Suppression of EAE relapse, clinical scores; assay type: in vivo; settings: BDNF 5.71 nmol/kg and/or ADTC5 10 μmol/kg i.v.
Method: EAE Mouse Model: EAE disease in animals (5-8-week-old SJL/elite female mice, Charles River) was stimulated by injecting 200 μg of PLP139-151 peptide in a 0.2 mL emulsion containing equal volumes of PBS and complete Freund's adjuvant (CFA) with killed mycobacterium tuberculosis strain H37RA (Difco, Detroit, Mich.; final concentration 4 mg/mL) as described in Kobayashi, N.; Kiptoo, P.; Kobayashi, H.; Ridwan, R.; Brocke, S.; Siahaan, T. J. Prophylactic and therapeutic suppression of experimental autoimmune encephalomyelitis by a novel bifunctional peptide inhibitor. Clin Immunol 2008, 129, (1), 69-79 and Kobayashi, N.; Kobayashi, H.; Gu, L.; Malefyt, T.; Siahaan, T. J. Antigen-specific suppression of experimental autoimmune encephalomyelitis by a novel bifunctional peptide inhibitor. J Pharmacol Exp Ther 2007, 322, (2), 879-86. Briefly, […] of PLP/CFA emulsion was administered to four different regions above the shoulders and the flanks on Day 0 followed by intraperitoneal injection of 200 ng of pertussis toxin (List Biological Laboratories, Campbell, Calif.) on Days 0 and 2. Clinical scores that reflect the disease progression were determined using an 11-point scale with 0.5 increments ranging from 0 to 5; 0 being no apparent disease and 5 being moribund. On Day 21, mice were randomly separated into […]: (i) BDNF (5.7 nmol/kg)+ADTC5 (10 μmol/kg; n=7), (ii) BDNF alone (5.71 nmol/kg, n=6), (iii) ADTC5 alone (10 μmol/kg; n=5), and (iv) vehicle (n=5). All mice received 8 intravenous injections every 4 days beginning on Day 21. The mice were euthanized via CO2 inhalation on Day 55. Area under the curve (AUC) calculations were used to compare clinical scores across groups; AUC calculations were performed using the trapezoid rule from Days 21 to 55.

[7] = IgG mAb 21.6 nmol/kg + 13 μmol/kg peptide i.v.

`CC(=O)N[C@H]1CSSC[C@@H](C(N)=O)NC(=O)[C@H](C(C)C)NC(=O)[C@@H]2CCCN2C(=O)[C@@H]2CCCN2C(=O)[C@H](C(C)O)NC(=O)[C@H](CC(=O)O)NC1=O` (some centres unmarked) [ADTC5, cyclo(1,7)acetyl-CDTPPVC-NH2] (Ac-CD[Thr(3ξ)]PPVC-NH2; disulfide 1-7) was tested, and the “average amount of IgG mAb in the brain” value ([1]; IRdye800CW-IgG mAb 21.6 nmol/kg i.v. alone or with 13 μmol/kg peptide, 15 min circulation, n=3) was 13.3±0.7 pmol/g brain, the “brain delivery of IgG mAb compared to control (IgG mAb alone)” value [1, 7] was “significantly better than in the PBS control; also recorded: significant difference” and the “enhancement of mAb brain deposition relative to control” value [1, 7] was “about three times that of control”. The “whole brain NIRF signal of IRDye800CW-IgG mAb” value [2] was “significantly higher signal intensity”, the “NIRF signal of fibronectin in brain homogenates” value ([3]; IRdye800CW-fibronectin 21.6 nmol/kg i.v. alone or with ADTC5 13 μmol/kg) was 35.498±3.001 ×10^3 A.U and the “brain delivery of 220 kDa fibronectin” value ([3]; fibronectin 21.6 nmol/kg with ADTC5 13 μmol/kg vs fibronectin alone) was “did not enhance”. For the same compound, the “amount of lysozyme in the brain” value ([4]; IRdye800CW-lysozyme 54 nmol/kg i.v. alone or with 13 μmol/kg peptide, C57BL/6 mice) was 37.8±7.1 pmol/g brain, the “brain delivery of lysozyme compared to lysozyme alone” value ([4]; lysozyme 21.6 nmol/kg with 13 μmol/kg peptide) was “no significant improvement” and the “amount of albumin in the brain” value [5] was 40.7±7.4 pmol/g brain. The “locomotion / paralysis observed” value ([6]; 8 injections) was “partial or full hind leg paralysis and full tail paralysis” and the “EAE clinical body scores” value ([6]; 8 injections every 4 days from day 21, compared with other groups/vehicle) was “no significant difference”.
